From patent US10227350B2 (Gilead Sciences, Inc., priority 2016, dated 2019)
pIC50: −log10 of the molar value.

What follows are compounds tested against PI3Kβ (Homo sapiens (Human), UniProt P42338) (assay: TR-FRET enzymatic activity assay, PI3Kβ). Conditions: 2× Km ATP, 2 μM PIP2, 30 minutes at 25° C., read-out: IC50-PIP-Beta.
Assay type: biochemical
Protocol: The compounds of formula (I) were characterized for their enzymatic activity against the PI3K isoforms. The activities were measured using a time-resolved fluorescence resonance energy transfer (TR-FRET) assay. TR-FRET monitored the formation of 3,4,5-inositol triphosphate molecule that competed with fluorescently labeled PIPS for binding to the GRP-1 pleckstrin homology domain protein.
Class I PI3K isoforms were expressed and purified as heterodimeric recombinant proteins. All assay reagents and buffers for the TR-FRET assay were purchased from Millipore. […] The compounds were added to the assay solution and incubated for 30 minutes at 25° C.

Sequence of PI3Kβ (P42338 whole entry): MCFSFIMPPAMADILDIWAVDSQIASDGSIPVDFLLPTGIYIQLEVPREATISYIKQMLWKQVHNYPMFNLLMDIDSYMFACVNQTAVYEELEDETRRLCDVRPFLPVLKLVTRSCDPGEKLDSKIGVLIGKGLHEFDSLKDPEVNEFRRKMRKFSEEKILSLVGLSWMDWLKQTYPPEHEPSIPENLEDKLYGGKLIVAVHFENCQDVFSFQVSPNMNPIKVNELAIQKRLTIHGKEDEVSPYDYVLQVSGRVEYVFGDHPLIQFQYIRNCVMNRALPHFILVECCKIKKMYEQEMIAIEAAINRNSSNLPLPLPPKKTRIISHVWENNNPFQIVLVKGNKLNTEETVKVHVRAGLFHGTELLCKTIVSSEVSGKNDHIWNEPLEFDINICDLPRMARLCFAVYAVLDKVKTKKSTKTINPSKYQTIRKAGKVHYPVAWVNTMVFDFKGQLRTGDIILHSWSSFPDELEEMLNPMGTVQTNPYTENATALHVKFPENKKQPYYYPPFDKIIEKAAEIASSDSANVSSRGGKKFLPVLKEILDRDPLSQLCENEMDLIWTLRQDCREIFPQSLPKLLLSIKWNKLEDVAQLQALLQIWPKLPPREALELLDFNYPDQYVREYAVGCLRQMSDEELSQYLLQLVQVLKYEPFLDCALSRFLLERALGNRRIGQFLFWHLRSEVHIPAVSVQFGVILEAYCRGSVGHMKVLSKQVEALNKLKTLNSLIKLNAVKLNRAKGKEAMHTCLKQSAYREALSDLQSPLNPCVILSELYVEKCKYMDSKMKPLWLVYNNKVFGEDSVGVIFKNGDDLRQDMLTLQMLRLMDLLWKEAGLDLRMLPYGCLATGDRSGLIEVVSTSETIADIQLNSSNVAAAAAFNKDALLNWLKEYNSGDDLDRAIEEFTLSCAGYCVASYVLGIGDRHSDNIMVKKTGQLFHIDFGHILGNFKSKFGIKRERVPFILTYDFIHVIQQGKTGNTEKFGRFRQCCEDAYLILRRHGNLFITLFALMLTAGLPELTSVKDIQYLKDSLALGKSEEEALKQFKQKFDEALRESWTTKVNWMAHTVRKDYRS
Sequence of PI3Kβ (P27986 whole entry partner): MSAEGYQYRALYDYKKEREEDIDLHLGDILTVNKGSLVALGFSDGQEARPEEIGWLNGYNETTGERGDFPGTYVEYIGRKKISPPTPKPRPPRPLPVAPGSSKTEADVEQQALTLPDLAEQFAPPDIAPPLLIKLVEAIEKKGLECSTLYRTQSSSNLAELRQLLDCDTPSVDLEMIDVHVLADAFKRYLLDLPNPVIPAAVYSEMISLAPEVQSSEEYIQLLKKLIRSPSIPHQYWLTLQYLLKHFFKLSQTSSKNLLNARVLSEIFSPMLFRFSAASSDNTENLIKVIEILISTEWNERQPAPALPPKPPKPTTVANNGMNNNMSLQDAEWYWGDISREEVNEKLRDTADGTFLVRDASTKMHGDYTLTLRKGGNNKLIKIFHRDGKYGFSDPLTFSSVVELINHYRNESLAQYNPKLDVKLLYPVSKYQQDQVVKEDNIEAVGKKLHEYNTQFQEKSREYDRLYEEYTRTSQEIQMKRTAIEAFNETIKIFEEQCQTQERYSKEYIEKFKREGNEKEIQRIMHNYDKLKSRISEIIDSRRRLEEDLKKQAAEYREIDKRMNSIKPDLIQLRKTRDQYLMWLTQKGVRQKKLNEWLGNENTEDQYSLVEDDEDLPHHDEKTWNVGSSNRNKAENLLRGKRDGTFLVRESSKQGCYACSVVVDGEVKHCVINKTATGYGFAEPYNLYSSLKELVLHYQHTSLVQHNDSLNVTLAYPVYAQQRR

SMILES | pIC50
Cc1nc2c(-c3nnc[nH]3)cc(-c3ccnc(N)c3F)cc2n1-c1ccnc2c(F)ccc(F)c12 (atropisomer, axis not shown) [Example 106, 4-[3-(5,8-difluoroquinolin-4-yl)-2-methyl-7-(4H-1,2,4-triazol-3-yl)benzimidazol-5-yl]-3-fluoropyridin-2-amine] | 8.52
Cc1nc2c(-c3nnc[nH]3)cc(-c3ccncc3)cc2n1-c1ccnc2c(F)ccc(F)c12 (atropisomer, axis not shown) [Example 139, 5,8-difluoro-4-(2-methyl-6-(pyridin-4-yl)-4-(4H-1,2,4-triazol-3-yl)-1H-benzo[d]imidazol-1-yl)quinoline] | 8.22
Cc1nc2c(-c3nnc[nH]3)cc(-c3ccnc(N)c3)cc2n1-c1ccnc2c(F)ccc(F)c12 (single isomer, unassigned) [Example 103, 4-(1-(5,8-difluoroquinolin-4-yl)-2-methyl-4-(4H-1,2,4-triazol-3-yl)-1H-benzo[d]imidazol-6-yl)pyridin-2-amine] | 6.68
Cc1nc2c(-c3nnc[nH]3)cc(-c3ccnc(N)c3)cc2n1-c1ccnc2c(F)ccc(F)c12 (single isomer, unassigned) [Example 104, 4-(1-(5,8-difluoroquinolin-4-yl)-2-methyl-4-(4H-1,2,4-triazol-3-yl)-1H-benzo[d]imidazol-6-yl)pyridin-2-amine] | 8.05
Cc1nc2c(-c3nnc[nH]3)cc(-c3ccnc(N)c3F)cc2n1-c1ccnc2c(F)ccc(F)c12 (single isomer, unassigned) [Example 105, 4-[3-(5,8-difluoroquinolin-4-yl)-2-methyl-7-(4H-1,2,4-triazol-3-yl)benzimidazol-5-yl]-3-fluoropyridin-2-amine] | 5.85
Cc1nc2c(-c3nnc[nH]3)cc(-c3ccnc(N)c3F)cc2n1-c1c(Cl)cnc2c(F)cccc12 (single isomer, unassigned) [Example 107, 4-[3-(3-chloro-8-fluoroquinolin-4-yl)-2-methyl-7-(4H-1,2,4-triazol-3-yl)benzimidazol-5-yl]-3-fluoropyridin-2-amine] | 7.54
Cc1nc2c(-c3nnc[nH]3)cc(-c3ccnc(N)c3F)cc2n1-c1c(Cl)cnc2c(F)cccc12 (single isomer, unassigned) [Example 108, 4-[3-(3-chloro-8-fluoroquinolin-4-yl)-2-methyl-7-(4H-1,2,4-triazol-3-yl)benzimidazol-5-yl]-3-fluoropyridin-2-amine] | 6.09
CCc1nc2c(-c3nnc[nH]3)cc(-c3ccnc(N)c3F)cc2n1-c1ccnc2c(F)ccc(F)c12 (single isomer, unassigned) [Example 109, 4-[3-(5,8-difluoroquinolin-4-yl)-2-ethyl-7-(4H-1,2,4-triazol-3-yl)benzimidazol-5-yl]-3-fluoropyridin-2-amine] | 5.59
CCc1nc2c(-c3nnc[nH]3)cc(-c3ccnc(N)c3F)cc2n1-c1ccnc2c(F)ccc(F)c12 (single isomer, unassigned) [Example 110, 4-[3-(5,8-difluoroquinolin-4-yl)-2-ethyl-7-(4H-1,2,4-triazol-3-yl)benzimidazol-5-yl]-3-fluoropyridin-2-amine] | 8.70
Cc1nnc(-c2cc(-c3ccnc(N)c3F)cc3c2nc(C)n3-c2ccnc3c(Cl)ccc(F)c23)[nH]1 (single isomer, unassigned) [Example 111, 4-[3-(8-chloro-5-fluoroquinolin-4-yl)-2-methyl-7-(5-methyl-4H-1,2,4-triazol-3-yl)benzimidazol-5-yl]-3-fluoropyridin-2-amine] | 5.60
Cc1nnc(-c2cc(-c3ccnc(N)c3F)cc3c2nc(C)n3-c2ccnc3c(Cl)ccc(F)c23)[nH]1 (single isomer, unassigned) [Example 112, 4-[3-(8-chloro-5-fluoroquinolin-4-yl)-2-methyl-7-(5-methyl-4H-1,2,4-triazol-3-yl)benzimidazol-5-yl]-3-fluoropyridin-2-amine] | 8.30
Cc1nc2c(-c3nnc[nH]3)cc(-c3ccnc(C#N)c3)cc2n1-c1ccnc2c(F)ccc(F)c12 (single isomer, unassigned) [Example 113, 4-[3-(5,8-difluoroquinolin-4-yl)-2-methyl-7-(4H-1,2,4-triazol-3-yl)benzimidazol-5-yl]pyridine-2-carbonitrile] | 8.70
Cc1nc2c(-c3nnc[nH]3)cc(-c3ccnc(C#N)c3)cc2n1-c1ccnc2c(F)ccc(F)c12 (single isomer, unassigned) [Example 114, 4-[3-(5,8-difluoroquinolin-4-yl)-2-methyl-7-(4H-1,2,4-triazol-3-yl)benzimidazol-5-yl]pyridine-2-carbonitrile] | 6.25
Cc1nc2c(-c3nnc[nH]3)cc(-c3ccnc(C#N)c3)cc2n1-c1ccnc2cc(F)cc(F)c12 (single isomer, unassigned) [Example 115, 4-(1-(5,7-difluoroquinolin-4-yl)-2-methyl-4-(4H-1,2,4-triazol-3-yl)-1H-benzo[d]imidazol-6-yl)picolinonitrile] | 8.52
Cc1nc2c(-c3nnc[nH]3)cc(-c3ccnc(C#N)c3)cc2n1-c1ccnc2cc(F)cc(F)c12 (single isomer, unassigned) [Example 116, 4-(1-(5,7-difluoroquinolin-4-yl)-2-methyl-4-(4H-1,2,4-triazol-3-yl)-1H-benzo[d]imidazol-6-yl)picolinonitrile] | 7.52
Cc1nc2c(-c3nnc[nH]3)cc(-c3ccnc(N)c3F)cc2n1-c1ccnc2cc(F)cc(F)c12 (single isomer, unassigned) [Example 117] | 8.40
Cc1nc2c(-c3nnc[nH]3)cc(-c3ccnc(N)c3F)cc2n1-c1ccnc2cc(F)cc(F)c12 (single isomer, unassigned) [Example 118] | 7.46
Cc1nc2c(-c3nnc[nH]3)cc(-c3ccnc(N)c3F)cc2n1-c1ccnc2c(Cl)ccc(Cl)c12 (single isomer, unassigned) [Example 119, 4-(1-(5,8-dichloroquinolin-4-yl)-2-methyl-4-(4H-1,2,4-triazol-3-yl)-1H-benzo[d]imidazol-6-yl)-3-fluoropyridin-2-amine] | 7.06
Cc1nc2c(-c3nnc[nH]3)cc(-c3ccnc(N)c3F)cc2n1-c1ccnc2c(Cl)ccc(Cl)c12 (single isomer, unassigned) [Example 120, 4-(1-(5,8-dichloroquinolin-4-yl)-2-methyl-4-(4H-1,2,4-triazol-3-yl)-1H-benzo[d]imidazol-6-yl)-3-fluoropyridin-2-amine] | 8.40
Cc1nc2c(-c3nnc[nH]3)cc(-c3ccnc(C#N)c3)cc2n1-c1ccnc2c(Cl)ccc(Cl)c12 (single isomer, unassigned) [Example 121, 4-(1-(5,8-dichloroquinolin-4-yl)-2-methyl-4-(4H-1,2,4-triazol-3-yl)-1H-benzo[d]imidazol-6-yl)picolinonitrile] | 9.00
Cc1nc2c(-c3nnc[nH]3)cc(-c3ccnc(C#N)c3)cc2n1-c1ccnc2c(Cl)ccc(Cl)c12 (single isomer, unassigned) [Example 122, 4-(1-(5,8-dichloroquinolin-4-yl)-2-methyl-4-(4H-1,2,4-triazol-3-yl)-1H-benzo[d]imidazol-6-yl)picolinonitrile] | 7.55
